Measured values: ChEMBL document CHEMBL1201862, “PubChem BioAssay data set” (2004)
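Results reflect a 48-hour exposure of cells in 96-well plates to compound at five concentrations. At the GI50, growth is halved.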 The source made the active and inactive calls. Rule as the data show it: active = GI50 up to about 1.1 µM and inactive = higher.

Legend:
Assay in all cases: NCI anticancer screen, dose series, 48 h
HOP-92 = system: HOP-92
M14 = system: M14
Malme-3M = system: Malme-3M
SN12C = system: SN12C
786-0 = system: 786-0
A549 = system: A549
OVCAR-3 = system: OVCAR-3
U-251 = system: U-251
SW-620 = system: SW-620
NCI-H460 = system: NCI-H460
RXF 393 = system: RXF 393
HCT-116 = system: HCT-116
DMS-114 = system: DMS-114
NCI-H522 = system: NCI-H522
K562 = system: K562
SNB-75 = system: SNB-75
MDA-N = system: MDA-N
MDA-MB-435 = system: MDA-MB-435
PC-3 = system: PC-3
BT-549 = system: BT-549

Structure (SMILES)	GI50 (HOP-92)	GI50 (M14)	GI50 (Malme-3M)	GI50 (SN12C)	GI50 (786-0)	GI50 (A549)	GI50 (OVCAR-3)	GI50 (U-251)	GI50 (SW-620)	GI50 (NCI-H460)	GI50 (RXF 393)	GI50 (HCT-116)	GI50 (DMS-114)	GI50 (NCI-H522)	GI50 (K562)	GI50 (SNB-75)	GI50 (MDA-N)	GI50 (MDA-MB-435)	GI50 (PC-3)	GI50 (BT-549)
CC(=O)OC1CC2(C)OC(Cc3ccccc32)O1 (stereo not drawn)	53.6 µM (inactive)	> 100 µM (inactive)	> 100 µM (inactive)	> 100 µM (inactive)	> 100 µM (inactive)	> 100 µM (inactive)	> 100 µM (inactive)	> 100 µM (inactive)	> 100 µM (inactive)	> 100 µM (inactive)	> 100 µM (inactive)	> 100 µM (inactive)	> 100 µM (inactive)	> 100 µM (inactive)	> 100 µM (inactive)	65.9 µM (inactive)	–	–	–	–
CN1NC2(CCCCC2)ON=C1c1ccccc1	> 100 µM (inactive)	> 100 µM (inactive)	> 100 µM (inactive)	> 100 µM (inactive)	> 100 µM (inactive)	> 100 µM (inactive)	> 100 µM (inactive)	> 100 µM (inactive)	> 100 µM (inactive)	> 100 µM (inactive)	> 100 µM (inactive)	> 100 µM (inactive)	> 100 µM (inactive)	> 100 µM (inactive)	> 100 µM (inactive)	> 100 µM (inactive)	–	–	–	–
Cc1ccc(S(=O)(=O)C(CC(NC=O)S(=O)(=O)c2ccc(C)cc2)NC=O)cc1 (stereo not drawn)	> 100 µM (inactive)	> 100 µM (inactive)	> 100 µM (inactive)	> 100 µM (inactive)	> 100 µM (inactive)	> 100 µM (inactive)	> 100 µM (inactive)	> 100 µM (inactive)	> 100 µM (inactive)	> 100 µM (inactive)	> 100 µM (inactive)	> 100 µM (inactive)	> 100 µM (inactive)	> 100 µM (inactive)	> 100 µM (inactive)	> 100 µM (inactive)	–	–	–	–
Cc1cc(=O)n(-c2ccccc2C)c(C)n1	> 100 µM (inactive)	> 100 µM (inactive)	> 100 µM (inactive)	> 100 µM (inactive)	> 100 µM (inactive)	> 100 µM (inactive)	> 100 µM (inactive)	> 100 µM (inactive)	> 100 µM (inactive)	> 100 µM (inactive)	> 100 µM (inactive)	> 100 µM (inactive)	> 100 µM (inactive)	> 100 µM (inactive)	> 100 µM (inactive)	> 100 µM (inactive)	–	–	–	–
CC12CC(Br)(Br)C(=O)C3C1CCCC32	2.17 µM (inactive)	3.64 µM (inactive)	4.06 µM (inactive)	4.57 µM (inactive)	4.07 µM (inactive)	14.6 µM (inactive)	3.15 µM (inactive)	11.5 µM (inactive)	2.25 µM (inactive)	14.9 µM (inactive)	2.11 µM (inactive)	1.93 µM (inactive)	6.3 µM (inactive)	3.08 µM (inactive)	2.1 µM (inactive)	8.2 µM (inactive)	2.99 µM (inactive)	3.03 µM (inactive)	12.2 µM (inactive)	2.09 µM (inactive)
CCc1ccccc1NC(=O)C1=C(C)NC(C)=C(C(=O)Nc2c(CC)cccc2CC)C1c1ccc2c(c1)OCO2 (stereo not drawn)	12.7 µM (inactive)	16.4 µM (inactive)	16.5 µM (inactive)	26 µM (inactive)	18.3 µM (inactive)	17.6 µM (inactive)	17.8 µM (inactive)	14.6 µM (inactive)	18.1 µM (inactive)	16.6 µM (inactive)	12.4 µM (inactive)	16.8 µM (inactive)	20.2 µM (inactive)	16.2 µM (inactive)	22.7 µM (inactive)	21.8 µM (inactive)	–	–	–	–
N=C(N)NCCCCCCC(=O)NC(O)C(=O)NCCCCNCCCN (stereo not drawn)	360 µM (inactive)	> 750 µM (inactive)	582 µM (inactive)	> 750 µM (inactive)	3070 µM (inactive)	473 µM (inactive)	474 µM (inactive)	611 µM (inactive)	> 750 µM (inactive)	718 µM (inactive)	700 µM (inactive)	711 µM (inactive)	69.2 µM (inactive)	479 µM (inactive)	551 µM (inactive)	335 µM (inactive)	2360 µM (inactive)	> 750 µM (inactive)	> 750 µM (inactive)	372 µM (inactive)
CCOC(C/N=c1/nc(N(C)C)ss1)OCC	18.4 µM (inactive)	16.9 µM (inactive)	7.71 µM (inactive)	19.2 µM (inactive)	17.7 µM (inactive)	57 µM (inactive)	9.89 µM (inactive)	16 µM (inactive)	2.6 µM (inactive)	4.31 µM (inactive)	19 µM (inactive)	14.9 µM (inactive)	18 µM (inactive)	0.0998 µM (active)	0.354 µM (active)	27.6 µM (inactive)	3.56 µM (inactive)	1.91 µM (inactive)	14.3 µM (inactive)	23.4 µM (inactive)
COc1ccc(/C=C2\CCC(C)(CN(C)C)C2=O)cc1 (stereo not drawn)	> 100 µM (inactive)	> 100 µM (inactive)	> 100 µM (inactive)	> 100 µM (inactive)	> 100 µM (inactive)	> 100 µM (inactive)	> 100 µM (inactive)	76.4 µM (inactive)	> 100 µM (inactive)	> 100 µM (inactive)	> 100 µM (inactive)	> 100 µM (inactive)	76 µM (inactive)	16.3 µM (inactive)	64 µM (inactive)	> 100 µM (inactive)	–	–	–	–
CSc1nnc(C(C#N)C#N)nn1	> 100 µM (inactive)	> 100 µM (inactive)	> 100 µM (inactive)	> 100 µM (inactive)	> 100 µM (inactive)	> 100 µM (inactive)	> 100 µM (inactive)	> 100 µM (inactive)	> 100 µM (inactive)	> 100 µM (inactive)	> 100 µM (inactive)	> 100 µM (inactive)	> 100 µM (inactive)	> 100 µM (inactive)	> 100 µM (inactive)	> 100 µM (inactive)	–	–	–	–
COc1cc2c(c(OC)c1OC)-c1ccc(SC)c(=O)cc1[C@@H](NCc1ccc([N+](=O)[O-])cc1)CC2	0.0472 µM (active)	0.00404 µM (active)	0.00583 µM (active)	0.00738 µM (active)	0.00624 µM (active)	0.00748 µM (active)	0.003 µM (active)	0.00416 µM (active)	0.00342 µM (active)	0.00318 µM (active)	0.00241 µM (active)	0.00369 µM (active)	0.00253 µM (active)	0.00313 µM (active)	0.00318 µM (active)	0.00354 µM (active)	–	–	–	–
